Experimental data taken from PMC9184463, “Structural basis of ligand binding modes of human EAAT2” (Nature Communications, 2022).
Several values for one entry are separate records, joined by “and”; a condition that tells them apart may be missing. Identical values can stand only once.

Columns and labels:
[1] = tested on: hEAAT3; conditions: cited from earlier work
[2] = tested on: ionotropic and metabotropic glutamate receptors; conditions: sentence of earlier manuscript version quoted by reviewer; no reference given; cited from earlier work
[3] = biological target: T1, hEAAT2 mutant D475A (Homo sapiens, UniProt P43004, D475A); assay: whole-cell patch-clamp, hEAAT2 mutant D475A in HEK293T cells; type: cell-based; conditions: 0 mV; for WAY-213613-inhibited current, normalized (MEAN): D475A
T1 construct: Strep Tag II (N); superfolder GFP (sfGFP) (N); expressed in transfected cells; host or cells: HEK293T
Experimental: (§1) Human embryonic kidney 293T (HEK293T) cells were cultured in Dulbecco’s Modified Eagle Medium (DMEM, Gibco) media supplemented with 15% (v/v) fetal bovine serum (FBS, PAN-Biotech) at 37 °C with 5% CO2. HEK293T cells were grown in the culture dishes (d = 3.5 cm) (Thermo Fisher Scientific) for 24 h and then 1 μg hEAAT2 wild-type and mutant plasmids for per dishes were used to transiently transfect HEK293T using 0.7 μg Lipofectamine 2000 Reagent (Thermo Fisher Scientific). Cells were analyzed using electrophysiological experiments between 24 and 40 h after transfection at room temperature (21–25 °C).
(§2) Electrophysiological experiments were performed as described previously with a minor modification. External buffer contained 140 mM NaCl, 2 mM MgCl2, 2 mM CaCl2, and 10 mM HEPES (pH = 7.4 with NaOH and osmolarity of ∼310 mosmol L^−1) and while internal pipette solution comprised of 130 mM NaSCN, 2 mM MgCl2, 10 mM EGTA, 10 mM HEPES (pH = 7.4 with NaOH and osmolarity of ∼310 mosmol L^−1) and 10 mM glutamate. 50 mM WAY-213613 stock solutions were prepared in dimethyl sulfoxide (DMSO), followed by dilutions to working concentrations with the above-mentioned external buffer. […] Whole cell patch-clamp experiment recordings were made from isolated GFP-positive HEK293T cells (hEAAT2 wild type and mutants). In all, 3–6 MΩ was used to fire a polished pipette (Sutter Instrument). […] Cells were immersed in the above-mentioned external buffer supplemented with a specified concentration of glutamate or WAY-213613. Glutamate-induced anion current, Na^+-dependent anion leak current and glutamate transport current or WAY-213613 inhibited anion leak currents were recorded using an EPC-10 amplifier (HEKA Electronic) at a 20 kHz sample rate with low pass filter at 5 kHz. All experiments were executed at 0 mV. After the cell current was stabilized, glutamate or WAY-213613 was sustained at the indicated concentrations from external dosing for at least 6 s. Subsequently, the cell was washed away with external buffer to start a new round of applications or end the experiment. The plateau currents were used for the following calculations. For analysis, the data was acquired by PatchMaster program (HEKA Electronic) at 5 s after recording. Nonlinear dose–response relationships were fitted into a Michaelis–Menten-like equation shown as below to obtain the apparent Km and Ki values in the presence of glutamate or WAY-213613.1 I/Imax=Km/i/C+Km/i In this equation, I represent the current at different glutamate or inhibitor concentrations, and Imax represents the maximal current at the saturating concentration of glutamate or inhibitor. [C] represents the concentration of glutamate or inhibitor. Km/i represents the apparent constant.

[4] = biological target: T2, hEAAT2 mutant I464V (Homo sapiens, UniProt P43004, I464V); assay: whole-cell patch-clamp, hEAAT2 mutant I464V in HEK293T cells; type: cell-based; conditions: 0 mV; for WAY-213613-inhibited current, normalized (MEAN): I464V
T2 construct: Strep Tag II (N); superfolder GFP (sfGFP) (N); expressed in transfected cells; host or cells: HEK293T
Experimental: as §1, §2

[5] = biological target: T3, hEAAT2 mutant V468I (Homo sapiens, UniProt P43004, V468I); assay: whole-cell patch-clamp, hEAAT2 mutant V468I in HEK293T cells; type: cell-based; conditions: 0 mV; for WAY-213613-inhibited current, normalized (MEAN): V468I
T3 construct: Strep Tag II (N); superfolder GFP (sfGFP) (N); expressed in transfected cells; host or cells: HEK293T
Experimental: as §1, §2

[6] = biological target: T4, hEAAT2 mutant R478A (Homo sapiens, UniProt P43004, R478A); assay: whole-cell patch-clamp, hEAAT2 mutant R478A in HEK293T cells; type: cell-based; conditions: 0 mV; for WAY-213613-inhibited current, normalized (MEAN): R478A
T4 construct: Strep Tag II (N); superfolder GFP (sfGFP) (N); expressed in transfected cells; host or cells: HEK293T
Experimental: as §1, §2

[7] = biological target: T5, hEAAT2 mutant L467I (Homo sapiens, UniProt P43004, L467I); assay: whole-cell patch-clamp, hEAAT2 mutant L467I in HEK293T cells; type: cell-based; conditions: 0 mV; for WAY-213613-inhibited current, normalized (MEAN): L467I
T5 construct: Strep Tag II (N); superfolder GFP (sfGFP) (N); expressed in transfected cells; host or cells: HEK293T
Experimental: as §1, §2

[8] = tested on: hEAAT2; conditions: cited from earlier work
[9] = tested on: hEAAT1; conditions: cited from earlier work
[10] = biological target: T6, wild-type hEAAT2 (Homo sapiens, UniProt P43004); assay: whole-cell patch-clamp of hEAAT2-associated anion current, wild-type hEAAT2 in HEK293T cells; type: cell-based; conditions: for WAY-213613-inhibited current, normalized (MEAN): WT
T6 construct: Strep Tag II (N); superfolder GFP (sfGFP) (N); expressed in transfected cells; host or cells: HEK293T
Experimental: as §1, §2

[11] = 0.3 μM WAY-213613, normalized to current at 100 μM
[12] = 1 μM WAY-213613, normalized to current at 100 μM
[13] = 3 μM WAY-213613, normalized to current at 100 μM
[14] = 10 μM WAY-213613, normalized to current at 100 μM
[15] = 30 μM WAY-213613, normalized to current at 100 μM
[16] = 100 μM WAY-213613, normalization reference
[17] = 0.03 μM WAY-213613, normalized to current at 30 μM
[18] = 0.1 μM WAY-213613, normalized to current at 30 μM
[19] = 0.3 μM WAY-213613, normalized to current at 30 μM
[20] = 1 μM WAY-213613, normalized to current at 30 μM
[21] = 3 μM WAY-213613, normalized to current at 30 μM
[22] = 10 μM WAY-213613, normalized to current at 30 μM
[23] = 30 μM WAY-213613, normalization reference

T3 sequence (P43004 whole entry V468I): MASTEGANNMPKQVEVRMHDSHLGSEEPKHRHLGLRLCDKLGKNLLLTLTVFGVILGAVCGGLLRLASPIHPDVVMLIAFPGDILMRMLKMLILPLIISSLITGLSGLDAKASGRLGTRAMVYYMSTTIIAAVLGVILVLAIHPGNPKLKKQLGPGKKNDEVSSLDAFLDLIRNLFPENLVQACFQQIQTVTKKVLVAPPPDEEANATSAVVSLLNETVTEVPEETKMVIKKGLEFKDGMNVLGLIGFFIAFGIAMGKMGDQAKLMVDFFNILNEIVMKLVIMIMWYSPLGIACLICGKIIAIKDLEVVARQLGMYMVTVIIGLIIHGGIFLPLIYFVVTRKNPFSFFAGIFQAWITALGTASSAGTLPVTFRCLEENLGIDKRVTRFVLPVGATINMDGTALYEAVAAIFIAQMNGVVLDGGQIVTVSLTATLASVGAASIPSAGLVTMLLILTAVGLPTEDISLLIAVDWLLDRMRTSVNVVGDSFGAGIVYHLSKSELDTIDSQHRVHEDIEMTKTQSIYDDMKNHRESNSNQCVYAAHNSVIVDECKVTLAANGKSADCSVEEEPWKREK
T2 sequence (P43004 whole entry I464V): as the sequence (P43004 whole entry V468I) above, with I464V, I468V counted along it
T6 sequence (P43004 whole entry, the tested form may be a part): as the sequence (P43004 whole entry V468I) above, with I468V counted along it
T4 sequence (P43004 whole entry R478A): as the sequence (P43004 whole entry V468I) above, with I468V, R478A counted along it
T5 sequence (P43004 whole entry L467I): as the sequence (P43004 whole entry V468I) above, with L467I, I468V counted along it
T1 sequence (P43004 whole entry D475A): as the sequence (P43004 whole entry V468I) above, with I468V, D475A counted along it

SMILES: NC(CC(=O)Nc1ccc(Oc2cc(F)c(F)cc2Br)cc1)C(=O)O (centres unmarked) [WAY-213613]
- selectivity (affinity) for hEAAT2 over hEAAT3 ([1]; hEAAT2 over hEAAT3): 44 fold
- IC50 ([1]; hEAAT3): 3800 nM
- effect on ionotropic and metabotropic glutamate receptors [2]: no effect
- WAY-213613-inhibited current, normalized (MEAN) [3, 11]: 0.06104
- WAY-213613-inhibited current, normalized (MEAN) [3, 12]: 0.08742
- WAY-213613-inhibited current, normalized (MEAN) [3, 13]: 0.1387
- WAY-213613-inhibited current, normalized (MEAN) [3, 14]: 0.2967
- WAY-213613-inhibited current, normalized (MEAN) [3, 15]: 0.647
- WAY-213613-inhibited current, normalized (MEAN) [3, 16]: 1
- Ki ([3]; D475A mutant, read-out: apparent Ki): 30500 nM
- WAY-213613-inhibited current, normalized (MEAN) [4, 17]: 0.1438
- WAY-213613-inhibited current, normalized (MEAN) [4, 18]: 0.3695
- WAY-213613-inhibited current, normalized (MEAN) [4, 19]: 0.6353
- WAY-213613-inhibited current, normalized (MEAN) [4, 20]: 0.8468
- WAY-213613-inhibited current, normalized (MEAN) [4, 21]: 0.8861
- WAY-213613-inhibited current, normalized (MEAN) [4, 22]: 0.98
- WAY-213613-inhibited current, normalized (MEAN) [4, 23]: 1
- Ki ([4]; I464V mutant, read-out: apparent Ki): ~170 nM and 166 nM
- WAY-213613-inhibited current, normalized (MEAN) [5, 17]: 0.136
- WAY-213613-inhibited current, normalized (MEAN) [5, 18]: 0.3481
- WAY-213613-inhibited current, normalized (MEAN) [5, 19]: 0.6012
- WAY-213613-inhibited current, normalized (MEAN) [5, 20]: 0.8026
- WAY-213613-inhibited current, normalized (MEAN) [5, 21]: 0.923
- WAY-213613-inhibited current, normalized (MEAN) [5, 22]: 0.993
- WAY-213613-inhibited current, normalized (MEAN) [5, 23]: 1
- Ki ([5]; V468I mutant, read-out: apparent Ki): ~200 nM and 196 nM
- WAY-213613-inhibited current, normalized (MEAN) [6, 11]: 0.173
- WAY-213613-inhibited current, normalized (MEAN) [6, 12]: 0.3915
- WAY-213613-inhibited current, normalized (MEAN) [6, 13]: 0.5586
- WAY-213613-inhibited current, normalized (MEAN) [6, 14]: 0.7927
- WAY-213613-inhibited current, normalized (MEAN) [6, 15]: 0.9136
- WAY-213613-inhibited current, normalized (MEAN) [6, 16]: 1
- Ki ([6]; R478A mutant, read-out: apparent Ki): 1680 nM
- WAY-213613-inhibited current, normalized (MEAN) [7, 17]: 0.06992
- WAY-213613-inhibited current, normalized (MEAN) [7, 18]: 0.1548
- WAY-213613-inhibited current, normalized (MEAN) [7, 19]: 0.4253
- WAY-213613-inhibited current, normalized (MEAN) [7, 20]: 0.7036
- WAY-213613-inhibited current, normalized (MEAN) [7, 21]: 0.8764
- WAY-213613-inhibited current, normalized (MEAN) [7, 22]: 1.001
- WAY-213613-inhibited current, normalized (MEAN) [7, 23]: 1
- Ki ([7]; L467I mutant, read-out: apparent Ki): ~460 nM and 464 nM
- IC50 [8]: 85 nM
- IC50 ([9]; hEAAT1): 5000 nM
- selectivity (affinity) for hEAAT2 over hEAAT1 ([9]; hEAAT2 over hEAAT1): 59 fold
- WAY-213613-inhibited current, normalized (MEAN) ([10]; 0.01 μM WAY-213613, 0 mV, normalized to current at 30 μM WAY-213613): 0.1531
- WAY-213613-inhibited current, normalized (MEAN) ([10]; 0.03 μM WAY-213613, 0 mV, normalized to current at 30 μM WAY-213613): 0.3093
- WAY-213613-inhibited current, normalized (MEAN) ([10]; 0.1 μM WAY-213613, 0 mV, normalized to current at 30 μM WAY-213613): 0.5406
- WAY-213613-inhibited current, normalized (MEAN) ([10]; 0.3 μM WAY-213613, 0 mV, normalized to current at 30 μM WAY-213613): 0.7864
- WAY-213613-inhibited current, normalized (MEAN) ([10]; 1 μM WAY-213613, 0 mV, normalized to current at 30 μM WAY-213613): 0.9254
- WAY-213613-inhibited current, normalized (MEAN) ([10]; 3 μM WAY-213613, 0 mV, normalized to current at 30 μM WAY-213613): 0.9686
- WAY-213613-inhibited current, normalized (MEAN) ([10]; 30 μM WAY-213613, 0 mV, normalization reference): 1
- effect of inhibitor on anion leak conductance ([10]; wild-type hEAAT2): block the anion leak conductance
- Ki ([10]; wild-type hEAAT2, HEK293T, 0 mV, Michaelis-Menten-like fit, read-out: apparent Ki (inhibition of anion leak current)): 70 ± 30 nM
